Data on nine molecules can be found in patent EP0652009A1, “Identification and use of protease inhibitors” (ELI LILLY AND COMPANY, priority 1993, dated 1995).

Non-standard residues stand in square brackets, D forms with d. Residues, ends and D or L forms follow the SMILES beside them. Sta = CC(C)C[C@H](N)[C@@H](O)CC(=O)O; N(iPr)Gly = CC(C)NCC(=O)O

Chain of Cathepsin D (P07339 169-412 limits assumed): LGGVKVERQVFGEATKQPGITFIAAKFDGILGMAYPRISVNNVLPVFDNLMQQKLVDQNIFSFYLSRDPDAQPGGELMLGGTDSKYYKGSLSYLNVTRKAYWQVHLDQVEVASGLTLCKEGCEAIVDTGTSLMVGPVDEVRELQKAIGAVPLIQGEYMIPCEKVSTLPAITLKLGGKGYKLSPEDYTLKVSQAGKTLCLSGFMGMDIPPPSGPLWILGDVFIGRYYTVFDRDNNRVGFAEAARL
Chain of Cathepsin D (P07339 65-162 limits assumed): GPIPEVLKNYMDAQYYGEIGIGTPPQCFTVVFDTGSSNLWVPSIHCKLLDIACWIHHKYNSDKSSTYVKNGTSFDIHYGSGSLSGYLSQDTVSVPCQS
T1 sequence (P07339 65-412): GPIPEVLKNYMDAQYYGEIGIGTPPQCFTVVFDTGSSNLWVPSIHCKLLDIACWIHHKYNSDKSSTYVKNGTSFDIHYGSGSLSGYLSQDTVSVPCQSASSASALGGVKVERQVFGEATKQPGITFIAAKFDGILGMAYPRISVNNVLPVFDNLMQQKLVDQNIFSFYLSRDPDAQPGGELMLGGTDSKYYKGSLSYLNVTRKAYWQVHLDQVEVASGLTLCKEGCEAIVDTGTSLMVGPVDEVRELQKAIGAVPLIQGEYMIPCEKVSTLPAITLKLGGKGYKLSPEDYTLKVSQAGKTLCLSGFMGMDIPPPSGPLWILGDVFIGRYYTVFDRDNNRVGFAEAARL

The first test has as its target T1, Human brain cathepsin D (Homo sapiens, UniProt P07339).
T1 construct: Human brain cathepsin D was purified from frozen post-mortem cortex; from tissue; host or cells: human post-mortem brain cortex
The experiment in a line: Assay 1: cathepsin D inhibition activity (non-cellular assay, porcine renin tetradecapeptide substrate, RP-HPLC). Particulars: purified human brain cathepsin D, pH 4.5, 44 µM porcine renin tetradecapeptide, 37°C. It is filed as biochemical. Here is the method:
An example of a non-cellular assay that may be used to determine in vitro aspartyl protease inhibitory activity reacts partially purified human brain cathepsin D with a substrate, e.g., porcine renin tetradecapeptide. The resultant reaction mixture is divided into portions and each portion is incubated for a different period of time. After the reaction is stopped, the turnover of substrate in each portion is determined using reverse-phase HPLC. Protease inhibition activity may be calculated based on the rates of substrate turnover. This assay is exemplified in Assay 1, below. Human brain cathepsin D was purified from frozen post-mortem cortex substantially in accordance with the method of Nixon and Morotta, (1984) J. Neurochem. 43:507-516. The cortex material was prepared and applied to a DEAE-Sepharose® column. The flow through fraction was dialyzed against 50mM Tris-HCl, pH 7.5, and applied to concanavalin A Sepharose® and eluted with 50mM Tris, pH 7.5, 0.5M methyl α-D-mannopyranoside. The eluted cathepsin D activity was dialyzed against 25mM Tris, pH 7.5, and stored at -40°C (Con A pool) until use. For each assay, 50 μL of the Con A pool was diluted to 270 μL in 200mM sodium citrate, pH 4.5, 150mM sodium chloride (NaCl), and incubated for 10 minutes at 4°C with 15 μL of compound stock diluted in dimethylsulfoxide (DMSO). The substrate, porcine renin tetradecapeptide ([…] [SEQ ID NO:3], Bachem Bioscience, Inc., Philadelphia, PA), was added to each reaction mixture to yield a final concentration of 44 μM in a total volume of 300 μL. The samples were incubated at 37°C for 0, 10, 20, or 30 minutes, and then boiled for 5 minutes to stop the reaction. The samples were centrifuged in a microcentrifuge for 10 minutes at 14,000 rpm at 4°C. After centrifugation, 200 μL of each reaction was injected onto […] column (Vydac, Hesperia, CA) with a Perkin Elmer ISS 100 autosampler and eluted with a gradient eluent of 0-50% CH3CN in 0.1% CF3CO2H at 2 mL/min. Peptide product peaks were monitored at 220nm with a Perkin Elmer LC 95 detector and integrated with Rainin Dynamax software in order to quantitate activity.
`CC(=O)NCC(=O)N[C@H](C(=O)N[C@H](C(=O)N[C@@H](CC(C)C)[C@@H](O)CC(=O)N[C@@H](C)C(=O)N[C@H](C(=O)O)[C@@H](C)O)C(C)C)C(C)C` [Example 41, CH3C(O)-Gly-Val-Val-Sta-Ala-Thr-OH] (Ac-GVV[Sta]AT-OH): inhibition was half-maximal at 0.004 µM (IC50). This lies in the single-digit nanomolar range. Still for that read-out and setting: as for `CC(C)C[C@H](NC(=O)[C@@H](NC(=O)[C@@H](NC(=O)CNC(C)C)C(C)C)C(C)C)[C@@H](O)CC(=O)N[C@@H](C)C(=O)N[C@H](C(=O)O)[C@@H](C)O` [Example 42, (CH3)2CH-Gly-Val-Val-Sta-Ala-Thr-OH] (H-[N(iPr)Gly]VV[Sta]AT-OH), the figure is 0.008 µM.

As for `CC(C)C[C@H](NC(=O)[C@@H](NC(=O)[C@@H](NC(=O)CN)C(C)C)C(C)C)[C@@H](O)CC(=O)N[C@@H](C)C(=O)N[C@H](C(=O)O)[C@@H](C)O` [Example 43, Gly-Val-Val-Sta-Ala-Thr-OH] (H-GVV[Sta]AT-OH), the IC50 (as a rule, the concentration that inhibits the measured activity by half) came out at 0.053 µM. This IC50 is about 6.6-fold higher than that of the molecule before. Still for that read-out and setting: as for `CC(C)C[C@H](NC(=O)[C@@H](NC(=O)CN)C(C)C)[C@@H](O)CC(=O)N[C@@H](C)C(=O)N[C@H](C(=O)O)[C@@H](C)O` [Example 45, Gly-Val-Sta-Ala-Thr-OH] (H-GV[Sta]AT-OH), the figure is greater than 0.25 µM. The molecule `CC[C@H](C)[C@H](NC(=O)C[C@H](O)[C@H](CC(C)C)NC(=O)[C@@H](NC(=O)CNC(C)C)C(C)C)C(=O)N[C@@H](C)C(=O)N[C@H](C(=O)O)[C@@H](C)O` [Example 48, (CH3)2CH-Gly-Val-Sta-Ile-Ala-Thr-OH] (H-[N(iPr)Gly]V[Sta]IAT-OH) had an IC50 greater than 0.25 µM.

The next test concerns the target Cathepsin D (Homo sapiens, UniProt P07339). Description: Assay 3: cathepsin D inhibition activity (non-cellular assay, chromogenic substrate). It is filed as biochemical. Set-up: Frozen human placental tissue was thawed and homogenized; from tissue; host or cells: human placenta. Particulars: 4 µM test compound; inhibition of initial rate relative to control; cathepsin D from human placental tissue. The protocol: A third non-cellular assay for determining in vitro aspartyl protease inhibitory activity is generally described in Jupp, R.A. et al., (1990) Biochem. J., 265:871-878 and Rao et al., J. Med. Chem. (1993), in press. The assay is carried out by incubating a test compound with a suitable aspartyl protease, such as cathepsin D, in the presence of a chromogenic substrate. The inhibition constant, Ki, value may then be determined by quantifying the competitive inhibition of the hydrolysis of the chromogenic substrate. A variety of chromogenic substrates that are useful for assaying aspartyl protease activity are discussed in Dunn, et al., (1986) Biochem. J., 237:899-906. A preferred chromogenic substrate for a cathepsin D assay is disclosed in Scarborough, P.E. et al., Protein Science, (1993), 2:264-276.
Concentrations of substrate solutions and cleavage products may be verified using amino acid analysis. The enzyme preparations may be titrated with a tightly binding inhibitor to quantitate the active concentration of the enzyme. Enzyme concentrations are typically in the range of from 1-6 nM. Stock solutions of the test compound are prepared at concentrations ranging from 1.0 to 5.0 mg/mL, and then 50-100 µL portions of these stock solutions may be further diluted to a concentration in the range of 5 to 300 µM for rate determinations.
[…] Then, the test compounds are assayed over a concentration range of, for example, 5 to 300 µM for rate determinations.
A decrease in absorbance in the range of 284-324 nm may be monitored using a spectrophotometer. Absorbance readings are typically taken at various timepoints. The initial velocities are then plotted versus the initial substrate concentration. […] Estimates of Ki may then be determined using the Dixon construction. Dixon, M., (1953) Biochem J., 55:170-171.
If the ratio of the total active enzyme concentration to the estimated Ki value ([E]t/Ki) is less than 0.2, then the precise Ki value may be computed by using a non-linear curve fitting program based on the equation: v= Vmax [S]/[S] + Km (1 + [I]/Ki ) [formula] where v is the initial rate, [S] is the initial substrate concentration, [I] is the inhibitor concentration and Km and Ki are defined above. […] P.J.F., (1972) Biochem J., 127:321-333. This Assay is exemplfied in Assay 3.
The homogenate was centrifuged at 10,000 rpm for 30 minutes in a Sorvall GSA rotor. The supernatant was adjusted to pH 3.7 using 5.7N HCl and then sodium acetate was added to a concentration of 0.1M. The resultant mixture was incubated for 30 minutes at 0°C, resulting in the formation of a precipitate. This precipitate was removed by centrifugation (30 minutes, 10,000 rpm). The acidic supernatent was applied to a chromatography column (pepstatinyl agarose equilibrated with 0.1M sodium acetate, pH 3.5, 0.1% Brij 35, and 1M NaCl), washed until the OD₂₈₀ of the effluent returned to baseline, and then eluted with 50mM Tris-HCl, pH 8.6, 0.1% Brij 35, and 1M NaCl. The eluent was dialyzed against 10mM sodium phosphate, pH 7.0, 0.1% Brij 35, and 0.1M NaCl, and then applied to a 1 mL DEAE-Sephacel column equilibrated with the same buffer. Cathepsin D was recovered in the breakthrough fraction.
The enzyme mixture (125 µL buffer (0.1M sodium formate at pH 3.7), 1 µL of a 1mM solution of test compound, 4 µL of DMSO, enzyme and water to provide a total volume of 230 µL) was vortexed and prewarmed for four minutes before the addition of the chromogenic substrate. After warming, the enzyme mixture was added to 20 µL of a […] dilution of substrate solution. A control reaction mixture was similarly prepared without the addition of the test compound. The percent of inhibition of the initial rate of reaction in the presence of a particular concentration of test compound (i.e. 4 µM) may be determined for the test compound by monitoring the reaction mixture in parallel to the control reaction. […]
For the molecule `Cc1ccc(C(=O)C2NCCc3ccccc32)cc1C(=O)N[C@@H](Cc1ccccc1)[C@H](O)CN1C[C@H]2CCCC[C@H]2C[C@H]1C(=O)NC(C)(C)C` (relative stereo) [Example 30, [3S-(3R*,4aR*,8aR*,2'S*,3'R*)]-2-[2'-Hydroxy-3'-phenylmethyl-4'-aza-5'-oxo-5'-(3''-[1''',2''',3''',4'''-tetrahydroisoquinolin-1'''-ylcarbonyl]-6''-methyl)phenyl]pentyl-decahydroisoquinoline-3-N-t-butylcarboxamide], the % inhibition (in general, the share of the control response that was lost under treatment) at 4µ M turned out to be 28%.

Still in this test, the particulars now being: cathepsin D from human placental tissue, chromogenic substrate, pH 3.7, 37°C.
As for `Cc1cccc2ccc(C(=O)N[C@@H](CC(N)=O)C(=O)N[C@@H](Cc3ccccc3)[C@H](O)Cc3ccccc3C(=O)NC(C)(C)C)nc12` [Example 9, [1S-(1R*,4R*,5S*)]-N-(1-(2-Amino-2-oxoethyl)-2-oxo-3-aza-4-phenylmethyl-5-hydroxy-6-(2-(1-t-butylamino-1-oxomethyl)phenyl)hexyl)-8-methylquinolin-2-yl carboxamide], the affinity, expressed as Ki, was 0.82 µM. This lies in the sub-micromolar range.

As to `CC(C)C(NC(=O)C(Cc1cccc2ccccc12)NC(=O)OC(C)(C)C)C(=O)NC(Cc1ccccc1)C(O)Cc1ccccc1C(=O)NC(C)(C)C` (stereo not drawn) [Example 23, [2R-(2R*,3S*,6S*,9S*)]-N-t-Butyl-2-[2-hydroxy-3-phenylmethyl-4,7-diaza-5,8-dioxo-6-(1-methylethyl)-9-N(t-butoxycarbonyl)amino-10-naphth-1-yl]decyl benzamide], the Ki (commonly the equilibrium dissociation constant of an inhibitor or competing ligand from its target) was determined as 0.073 µM. On the same count and under the same terms, as for `CC(C)C(NC(=O)C(Cc1cccc2ccccc12)NC(=O)OC(C)(C)C)C(=O)NC(Cc1ccccc1)C(O)Cc1ccccc1C(=O)NC(C)(C)C` (stereo not drawn) [Example 24, [2R-(2R*,3S*,6S*,9R*)]-N-t-Butyl-2-[2-hydroxy-3-phenylmethyl-4,7-diaza-5,8-dioxo-6-(1-methylethyl)-9-N(t-butoxycarbonyl)amino-10-naphth-1-yl]decyl benzamide], the figure is 0.042 µM.
